From patent US20110150769A1, “IDENTIFICATION AND USE OF COMPOUNDS FOR TREATING PERSISTENT PAIN” (priority 2009, published 2011)

Experiments:
DRG neurons = test: Calcium imaging of cultured DRG neurons; format: cell-based, mouse; settings: for percentage of DRG neurons responding, WT vs MrgprA1GFP/GFP mice: comparison of WT and MrgprA1GFP/GFP mice
Method: Calcium Imaging of Cultured Dorsal Root Ganglia (DRG) Neurons
DRG neurons were plated on poly-D-lysine/laminin-coated coverslips and cultured for 24 hours. […] Briefly, neurons were loaded with Fura 2-acetomethoxy ester (Molecular Probes) for 30 min in dark at room temperature. After washing, neurons were imaged at 340/380 nm excitation to detect intracellular free calcium. All tests were performed with an experimenter blinded to the genotype.

[1] = tested on: small-diameter primary sensory neurons (DRG neurons); test: Whole-cell recordings of cultured DRG neurons (evoked action potentials); format: cell-based, mouse
Method: Whole-Cell Voltage-Clamp Recordings of Cultured DRG Neurons
Dissociated DRG neurons were plated on coverslips and cultured for 2-7 hours. For clamp recording, coverslips were perfused with extracellular solution (ECS) consisting of (in mM): NaCl 140, KCl 4, CaCl2 2, MgCl2 2, HEPES 10, Glucose 5, with pH adjusted to 7.38 using NaOH. Neurons with cell body diameters between 22 and 25 μm were recorded in the whole-cell voltage-clamp configuration with electrodes (pipette solution in mM: KCl 135, MgATP 3, Na2ATP 0.5, CaCl2 1.1, EGTA 2, Glucose 5, pH adjusted to 7.38) using an Axon 700B amplifier and the pCLAMP 9.2 software package (Axon Instruments). Electrodes were pulled (Narishige, Model pp-830) from borosilicate glass (WPI, Inc), and after filling they had resistances of 2-4 MΩ. Neurons were perfused with […] FMRFamide for 30 seconds and washed for 3 minutes. Action potentials were elicited with prolonged injections (500 ms) of a depolarizing current (200 pA) before and after FMRFamide treatment. All experiments were performed at room temperature with an experimenter blinded to the genotype.

[2] = adult mutant (Mrgpr-clusterΔ−/−) DRG neurons

Row | Substance | responses in DRG neurons (DRG neurons; [2]) | percentage of DRG neurons responding, WT vs MrgprA1GFP/GFP mice (DRG neurons) | responses in DRG neurons (DRG neurons; newborn Mrgpr-clusterΔ−/− mice) | firing rate ([1]; Mrgpr-deficient neurons) | number of action potentials evoked by injection of depolarizing current ([1]; WT DRG neurons, current-clamp) | cells with sensitizing effect / cells recorded ([1]; WT adult DRG neurons, cell body diameter 22 to 25 μm) | average number of action potentials after treatment ([1]; WT neurons, n=10, 500 ms, 200 pA depolarizing current, before treatment 3.6±1.6) | cells with sensitizing effect / cells recorded ([1]; neurons from Mrgpr-clusterΔ−/− mice)
1 | FMRFamide | no responses | did not differ significantly | few or no responses | did not show an increase in firing rate | significant increase | 10 of 23 | 7.7±1.9 | 1 of 20
2 | NPFF | no responses | did not differ significantly | few or no responses |  |  |  |  | 
